# Measured values published in patent US11628146B2, “Estrogen receptor ligand treatment for neurodegenerative diseases” (The Regents of the University of California, priority 2014, dated 2023).
# Entries after “also recorded” stand apart in the source; their conditions may differ.
# Test system: EAE in C57BL/6 mice
# Experiment: Standard EAE clinical score (0-5 scale), MOG 35-55 induced EAE, C57BL/6 mice
# Assay type: in vivo, mouse
# Parameters: key to Standard EAE Score: n.s. = not significant; *p < 0.05; ***p = 0.0004; ****p < 0.0001; n.i. = not informative
# Settings: for Standard EAE Score: significance vs vehicle; for Standard EAE clinical score: vs miglyol vehicle
# Excerpt: Animals. C57BL/6 and NOD mice 8 weeks old were purchased from Jackson Laboratories (Bar Harbor, Me.). Animals were maintained under environmentally controlled conditions in a 12-hour light/dark cycle with access to food and water ad libitum. All procedures were done in accordance with the guidelines of the National Institutes of Health and the Chancellor's Animal Research Committee of the University of California, Los Angeles Office for the Protection of Research Subjects.
# Reagents. AC-186 was dissolved in either Miglyol 812N liquid oil (Sasol North America) or sesame oil (Sigma Aldrich) as following concentration; 1.5 mg/mL for 3 mg/kg group, 5 mg/mL for 10 mg/kg group, and 15 mg/mL for 30 mg/kg group. Diarylpropionitrile (DPN, Tocris Biosciences) was dissolved in 10% molecular-grade ethanol and diluted with 90% of either Miglyol 812N liquid oil or sesame oil.
# EAE and Treatments. Animals were injected subcutaneously with Myelin Oligodendrocyte Glycoprotein (MOG), amino acids 35-55 (200 μg/animal, American Peptides), emulsified in complete Freund's adjuvant (CFA) and supplemented with Mycobacterium tuberculosis H37ra (300 μg/animal, Difco Laboratories), over two sites drained by left inguinal and auxiliary lymph nodes in a total volume of 0.1 ml/mouse. One week later, a booster immunization was delivered over contra lateral lymph nodes. Pertussis toxin (500 ng/mouse) (List Biological Laboratories, Inc.) was injected intraperitoneally on days 0 and 2. Animals were monitored daily for EAE signs based on a standard EAE 0-5 scale scoring system: 0—healthy, 1—complete loss of tail tonicity, 2—loss of righting reflex, 3—partial paralysis, 4—complete paralysis of one or both hind limbs, and 5—moribund. Animals received 0.05 ml of either of 1.5, 5, 15 mg/mL AC-186, vehicle (sesame oil or Miglyol 812N liquid oil), or DPN (8 mg/kg/day) via subcutaneous injections every other day. Animals were treated with AC-186 or vehicle after EAE induction. Specifically, treatment was initiated at the first clear signs of clinical disease (EAE day 13-15), and continued to the endpoint of the experiment.
compound,measurement,setting,value
Oc1ccc(C2(c3ccccc3F)CCC(F)(F)CC2)cc1 [AC-186],Standard EAE Score,"C57BL/6 F, AC186 3 mg/kg, sesame vehicle",n.s.
same,Standard EAE Score,"C57BL/6 F, AC186 10 mg/kg, miglylol vehicle",**** (less robust that 30 mg/kg) (****p < 0.0001)
same,Standard EAE Score,"C57BL/6 F, AC186 10 mg/kg, sesame vehicle",n.s.
same,Standard EAE Score,"C57BL/6 F, AC186 30 mg/kg, miglylol vehicle",**** (****p < 0.0001)
same,Standard EAE Score,"C57BL/6 F, AC186 30 mg/kg, sesame vehicle",* (*p < 0.05)
same,Standard EAE Score,"C57BL/6 M, AC186 30 mg/kg, miglylol vehicle",**** (****p < 0.0001)
same,Standard EAE Score,"C57BL/6 M, AC186 30 mg/kg, sesame vehicle",n.s.
same,EAE score,"female C57BL/6, 3 mg/kg s.c. every other day in sesame oil, vs vehicle",no effect on the EAE score
same,Standard EAE clinical score,"female C57BL/6, 10 mg/kg in miglyol",significant efficacy in ameliorating the standard EAE clinical scores; also recorded: ameliorated
same,EAE score,"female C57BL/6, 10 mg/kg s.c. every other day in sesame oil, vs vehicle",a trend toward improvement
same,Standard EAE clinical score,"female C57BL/6, 30 mg/kg in miglyol",significant efficacy in ameliorating the standard EAE clinical scores; also recorded: beneficial effects; also recorded: ameliorated
same,EAE score,"female C57BL/6, 30 mg/kg s.c. every other day in sesame oil, from first clinical signs, vs vehicle",a significant effect in ameliorating standard EAE clinical scores; also recorded: displayed the best EAE score; also recorded: significantly less severe EAE scores
same,EAE score,"male C57BL/6, 30 mg/kg in miglyol, vs miglyol alone",performed significantly better; also recorded: better EAE scores
same,EAE score,"male C57BL/6, 30 mg/kg in sesame oil, vs sesame oil alone",did not perform significantly better; also recorded: did not display efficacy
